According to US6203976A, “Methods of preparing compositions comprising chemicals capable of transcriptional modulation” (OSI Pharmaceuticals, Inc., priority 1994, dated 2001):
Read-outs that look alike come from different tables or passages of the source.

Columns and labels:
[1] = tested on: human growth hormone (532) promoter; test: High-throughput luciferase reporter assay, human Growth Hormone promoter (Screen III); format: cell-based; conditions: 532 cells, 6 hours; for FOLD INHIBITION RELATIVE TO SOLVENT CONTROL, hGH: Screen III inhibitors; for FOLD INDUCTION RELATIVE TO SOLVENT CONTROL, hGH: Screen III activators
MMTV (M10) promoter = test: High-throughput luciferase reporter assay, MMTV promoter (Screen III); format: cell-based, mouse; conditions: M10 cells, 6 hours; for FOLD INHIBITION RELATIVE TO SOLVENT CONTROL, MMTV: Screen III inhibitors; for FOLD INDUCTION RELATIVE TO SOLVENT CONTROL, MMTV: Screen III activators
Experimental: pMluci and pSV2Neo, an antibiotic resistance plasmid (112), were co-transfected into NIH/3T3 mouse fibroblast cells using the calcium phosphate precipitation method (103) with a commercially available kit (Pharmacia, Piscataway N.J.). Two days later, cells were transferred to media containing 0.4 mg/ml G418 and were grown for an additional 10-14 days. G418-resistant clones were isolated by standard methods. Once sufficient cell numbers were obtained, clones were analyzed based on several criteria: constitutive luciferase production, induction of luciferase expression by dexamethasone (1 μm, Sigma, St. Louis, Mo.), satisfactory attachment to microtiter plates used in the high-throughput screen and acceptable standard deviation in multiple luciferase expression assays (see below for assay protocol). This analysis was carried out using the luciferase assay conditions described above. Of the clones which satisfied the above criteria for the high throuphput screen, one clone, M10, was selected for use.

[2] = tested on: human G-CSF (G21) promoter; test: High-throughput luciferase reporter assay, G-CSF promoter (Screen III); conditions: for scored as positive in repeat assays, G-CSF: 48 independent luciferase assays performed on the same day; for FOLD INDUCTION RELATIVE TO SOLVENT CONTROL, GCSF: Screen III activators
[3] = Screen III inhibitors, G21 cells, 6 hours

SMILES	FOLD INHIBITION RELATIVE TO SOLVENT CONTROL, hGH [1] [fold]	FOLD INHIBITION RELATIVE TO SOLVENT CONTROL, MMTV (MMTV (M10) promoter) [fold]	FOLD INHIBITION RELATIVE TO SOLVENT CONTROL, GCSF [2, 3] [fold]	FOLD INDUCTION RELATIVE TO SOLVENT CONTROL, hGH [1] [fold]	FOLD INDUCTION RELATIVE TO SOLVENT CONTROL, MMTV (MMTV (M10) promoter) [fold]	scored as positive in repeat assays, G-CSF [2]	FOLD INDUCTION RELATIVE TO SOLVENT CONTROL, GCSF ([2]; G21 cells, 6 hours) [fold]	FOLD INHIBITION RELATIVE TO SOLVENT CONTROL, GCSF [2]
Cc1cc(=O)oc2c(CN(CC(=O)O)CC(=O)O)c(O)ccc12 [compound 1712]	8.33	0.94	0.74	–	–	–	–	–
CC(=O)n1ccnc1 [Chemical #58, 1-Acetylimidazole]	–	–	–	0.17	0.42	scored as positives in every single one of these assays	6.03	–
CC1(C)[C@@H](C(=O)OCC(F)(F)C(F)(F)C(F)(F)C(F)(F)C(F)(F)C(F)F)CC[C@@]1(C)C(=O)OCC(F)(F)C(F)(F)C(F)(F)C(F)(F)C(F)(F)C(F)F [compound 1592]	–	–	–	0.74	1.34	–	3.20	–
Nc1ccc(S(=O)(=O)O)c2cccc(O)c12 [compound 1337]	–	–	–	15.87	0.23	–	0.07	–
Brc1ccc2c3c(cccc13)CC2 [compound 1573]	–	–	–	0.34	4.30	–	1.49	–
COc1ccc(CC(=O)O)cc1OC [compound 629]	–	–	–	1.05	2.48	–	0.85	–
O=c1ccc2[n+]([O-])c3ccc(O)cc3oc-2c1 [compound 427]	–	–	–	0.43	0.71	–	3.14	–
O=c1c(O)c(-c2ccc(O)c(O)c2)oc2cc(O)ccc12 [compound 325]	–	–	–	5.42	1.0	–	0.14	–
NC1=NCCS1 [compound 1552]	–	–	–	7.26	0.52	–	1.23	–
CC(CCl)CBr (stereo not drawn) [compound 2096]	–	–	–	0.61	0.89	–	3.27	–
CC1=CC(=C(c2cc(C)c(O)c(C(=O)O)c2)c2c(Cl)ccc(S(=O)(=O)O)c2Cl)C=C(C(=O)O)C1=O [compound 556]	33.33	0.87	0.73	–	–	–	–	–
Cc1c(C(=O)O)c(O)cc2c1C(=O)c1c(O)c([C@@H]3O[C@H](CO)[C@@H](O)[C@H](O)[C@H]3O)c(O)c(O)c1C2=O [compound 1770]	10.00	0.57	0.54	–	–	–	–	–
NCc1ccc(S(N)(=O)=O)cc1 [compound 1375]	–	–	–	0.04	1.37	–	8.94	–
COC(=O)CP(=O)(OCC(F)(F)F)OCC(F)(F)F [compound 1651]	3.57	0.70	0.69	–	–	–	–	–
CC(=O)N(C)c1ccc(N)cc1 [Chemical #1374, 4'-Amino-N-methylacetanilide]	–	–	–	0.05	1.05	scored as positives in every single one of these assays	11.03	–
CCOC(=O)c1c[nH]c(=S)[nH]c1=O [compound 1740]	–	–	–	17.77	0.87	–	0.74	–
O=C1CCCCC1Cl (stereo not drawn) [compound 2148]	–	–	–	0.92	2.82	–	0.45	–

SMILES	FOLD INHIBITION RELATIVE TO SOLVENT CONTROL, hGH [1] [fold]	FOLD INHIBITION RELATIVE TO SOLVENT CONTROL, MMTV (MMTV (M10) promoter) [fold]	FOLD INHIBITION RELATIVE TO SOLVENT CONTROL, GCSF [2, 3] [fold]	FOLD INDUCTION RELATIVE TO SOLVENT CONTROL, hGH [1] [fold]	FOLD INDUCTION RELATIVE TO SOLVENT CONTROL, MMTV (MMTV (M10) promoter) [fold]	scored as positive in repeat assays, G-CSF [2]	FOLD INDUCTION RELATIVE TO SOLVENT CONTROL, GCSF ([2]; G21 cells, 6 hours) [fold]	FOLD INHIBITION RELATIVE TO SOLVENT CONTROL, GCSF [2]
CN(C)c1ccc2cc3ccc(N(C)C)cc3nc2c1 [compound 80]	–	–	–	0.66	0.83	–	5.87	–
O=S(=O)(O)c1ccc(-c2nnc(-c3ccnc(-c4nnc(-c5ccc(S(=O)(=O)O)cc5)c(-c5ccc(S(=O)(=O)O)cc5)n4)c3)nc2-c2ccc(S(=O)(=O)O)cc2)cc1 [compound 1604]	5.00	0.97	0.77	–	–	–	–	–
O=C1OC2(c3cc(I)c(O)c(I)c3Oc3c2cc(I)c(O)c3I)c2c(Cl)c(Cl)c(Cl)c(Cl)c21 [compound 792]	–	–	–	5.31	1.21	–	0.94	–
Nc1nc2nc[nH]c2c(=S)[nH]1 [compound 1521]	–	–	–	0.73	0.92	–	3.59	–
O=C(N[C@H](CO)[C@H](O)c1ccc([N+](=O)[O-])cc1)C(Cl)Cl [compound 2191]	–	–	–	0.35	7.32	–	0.37	–
CN(C)C(=S)SCC#N [compound 1793]	–	–	–	0.52	1.21	–	9.50	–
Nc1ccc2c(c1)C(=O)c1ccccc1-2 [compound 1318]	–	–	–	0.85	2.41	–	1.13	–
O=C(O)c1[nH]c(=O)[nH]c(=O)c1I [compound 633]	–	–	–	0.86	2.46	–	1.02	–
O=c1[nH]c(=O)n([C@H]2C[C@H](O)[C@@H](CO)O2)cc1Br [compound 543]	–	–	–	0.72	0.98	–	7.17	–
CC(=O)c1c(C)cc(NC(C)(C)C)nc1NC(C)(C)C [compound 40]	–	–	–	0.62	0.27	–	5.62	–
Cc1cc(C)nc(NS(=O)(=O)c2ccc(N)cc2)n1 [compound 443]	4.76	0.79	0.60	–	–	–	–	–
C1CCNCC1 [compound 759]	5.88	0.95	–	–	–	–	–	0.64
Nc1ccc2c(c1)Cc1ccccc1-2 [compound 1316]	–	–	–	1.39	2.33	–	0.74	–
Clc1cc(Cl)cc(Br)c1 [compound 1255]	–	–	–	0.43	1.09	–	6.74	–
c1ccc(-c2nccnc2-c2ccccn2)nc1 [compound 1641]	5.55	0.60	0.83	–	–	–	–	–
CN(C)c1ccc(C(=C2C=CC(=[N+](C)C)C=C2)c2ccc(N(C)C)cc2)cc1 [Chemical #1780, Crystal Violet]	–	–	–	0.38	1.15	scored as positives in every single one of these assays	20.39	–
